Results from patent US9139543B2, “Thiazole compounds and uses thereof” (Institute of Pharmacology and Toxicology Academy of …, priority 2012, dated 2015).

These compounds were tested on myocardial cells (assay: Activity of preventing cardiomyocyte apoptosis induced by TM (MTT cell survival)). Settings: Cardiomyocyte, primary neonatal rat myocardial cells, compound 30 min before TM 0.5 μg/ml, 48 h, read-out: Protection effects against cardiomyocyte apoptosis induced by TM, EC50.
Type: cell-based, Neonatal Wistar rats
Method: Neonatal Wistar rats newborn within 24 h, not confined to female or male (provided by the Center of Laboratory Animals, Academy of Military Medical Science of the PLA, animal certificate No.: SCXK-( ? ) 2007-004). High-sugar DMEM culture medium, trypsinase, and type II collagenase purchased from Gibco Company; fetal bovine serum (FBS) purchased from Beijing Yuanhengshengma Biological Technology Institute; 5-bromo-2-deoxyuridine (5-Brdu), tunicamycin (TM) purchased from Sigma Company; thiazolyl blue (MTT), dimethyl sulfoxide (DMSO) which is the product of Amresco; other chemical agents were all analytical pure and made in China. Universal Microplate ReaderEL800 type of ELIASA was a product of BIO-TEK Company of US.
neonatal Wistar rats newborn within 24 h were used, skin of abdomen was sterilized with iodine and alcohol. Tissue of ventricular apex was taken out with aseptic operation, cut into pieces with 1 mm^3 size, added with suitable amount of 0.125% pancretin and 0.1% collagenase II (final concentration was respectively 0.1% and 0.02%), mechanical shaking in 37° C. water-bath, 10 min each time, digested repeatedly until the tissue pieces were completely digested. The prepared myocardial cell suspension was inoculated in a 75 cm^2 culture flask. Non-myocardial cells were removed by differential adhesion method. The myocardial cell density was adjusted with DMEM culture medium containing 10% FBS, inoculated to a 96-well plate in an amount of 10^4/ml, placed in 5% CO2 incubator at 37° C. for 24 h for primary culture. Half medium was replaced after 24 h, a culture medium containing 0.1% 5-Brdu (5-bromo-2-deoxyuridine) was replenished to inhibit the growth of non-myocardial cells. The medium was replaced once per 48 h for primary culture.
Measurement of compound activity: myocardial cells were cultured for 4 days, respectively treated with compound in different concentrations (0.3 μM, 1 μM, 3 μM) for 30 min, then added with TM to final concentration of 0.5 μg/ml (TM group with final concentration of 0.5 μg/ml and solvent control group (DMSO) were set at the same time), and placed in 37° C., 5% CO2 incubator and cultured for 48 h, then each well was added with 10 μl of MTT (5 mg/ml) and continuously incubated for 4 h, finally each well was added with 100 μL of 10% SDS, incubated at 37° C., 5% CO2 for 24 h, so that MTT crystal was completely dissolved. ELISA was used to measure light absorbance of each well under 550 nm wavelength, in which TM and the compound of the present invention were formulated with DMSO. The formula is: cell survival rate (%)=OD value of administration group/average OD value of solvent control well×100%. The results were expressed in x±SD, and EC50 values (Table 1) were calculated with software, so that the effect of compound of the present invention preventing cardiomyocyte apoptosis induced by TM was determined.
`COc1ccc(-c2nc(NC(NC(=O)/C=C/c3ccccc3)C(Cl)(Cl)Cl)sc2-c2ccccc2)cc1` (stereo not shown) [Example 1] showed an EC50 of 100 µM.
Work on `O=C(/C=C/c1ccccc1)NC(Nc1nc(-c2ccccc2)c(-c2ccccc2)s1)C(Cl)(Cl)Cl` (stereo not shown) [Example 2] yielded an EC50 of 47 µM.
Work on `COc1ccc(-c2csc(NC(NC(=O)/C=C/c3ccccc3)C(Cl)(Cl)Cl)n2)cc1` (stereo not shown) [Example 3, (2E)-3-(2-phenyl)-N-[1-(4-methoxyphenyl-2-thiazolyl)-2,2,2-trichloroethyl]-2-acrylamide] yielded an EC50 of 61 µM.
Compound `O=C(/C=C/c1ccccc1)NC(Nc1nc(-c2ccc(F)cc2F)cs1)C(Cl)(Cl)Cl` (stereo not shown) [Example 4, (2E)-3-(2-phenyl)-N-[1-(2,4-difluorophenyl-2-thiazolyl)-2,2,2-trichloroethyl]-2-acrylamide] has an EC50 of 0.8 µM.
Compound `O=C(/C=C/c1ccccc1)NC(Nc1nc(-c2ccc(Cl)cc2)cs1)C(Cl)(Cl)Cl` (stereo not shown) [Example 5, (2E)-3-(2-phenyl)-N-[1-(4-chlorophenyl-2-thiazolyl)-2,2,2-trichloroethyl]-2-acrylamide] has an EC50 of 0.3 µM.
In the case of `O=C(/C=C/c1ccccc1)NC(Nc1nc(-c2ccccc2)cs1)C(Cl)(Cl)Cl` (stereo not shown) [Example 6], the EC50 is reported as 30 µM.

Same assay, conditions: primary neonatal rat myocardial cells, TM 0.5 μg/ml
For `O=C(/C=C/c1ccccc1)NC(Nc1nc(-c2ccc(Cl)cc2)cs1)C(Cl)(Cl)Cl` (stereo not shown) [Example 5, (2E)-3-(2-phenyl)-N-[1-(4-chlorophenyl-2-thiazolyl)-2,2,2-trichloroethyl]-2-acrylamide], the “Protection effects against cardiomyocyte apoptosis induced by TM (in words)” value was “good protection effects”.
